Data: patent US8754115B2, “Fungicidal pyrazoles” (E I du Pont de Nemours and Company, priority 2010, dated 2014)
Marks after values point to notes of the source that are not given here.

Key:
Assay type in all cases: in vivo
[1] = test system: Puccinia recondite f. sp. tritici; assay: Test E2: preventive spray on wheat seedlings, visual disease rating (wheat leaf rust)
Source text: (§1) General protocol for preparing test suspensions for Tests A-F: the test compounds were first dissolved in acetone in an amount equal to 3% of the final volume and then suspended at the desired concentration (in ppm) in acetone and purified water (50/50 mix by volume) containing 250 ppm of the surfactant Trem® 014 (polyhydric alcohol esters). The resulting test suspensions were then used in Tests A-F. Spraying a 200 ppm test suspension to the point of run-off on the test plants was the equivalent of a rate of 800 g/ha. Unless otherwise indicated, the rating values indicate a 200 ppm test suspension was used. (An asterisk “*” next to the rating value indicates a 40 ppm test suspension was used.)
The test suspension was sprayed to the point of run-off on wheat seedlings. The following day the seedlings were inoculated with a spore suspension of Puccinia recondite f. sp. tritici (the causal agent of wheat leaf rust) and incubated in a saturated atmosphere at 20° C. for 24 h, and then moved to a growth chamber at 20° C. for 7 days, after which time visual disease ratings were made.
(§2) Results for Tests A-F are given in Table A. In the Table, a rating of 100 indicates 100% disease control and a rating of 0 indicates no disease control (relative to the controls). A dash (-) indicates no test results. An asterisk “*” next to the rating value indicates a 40 ppm test suspension was used.

Botrytis cinerea = assay: Test A: preventive spray on tomato seedlings, visual disease rating (tomato Botrytis)
Source text: as §1
(§3) The test suspension was sprayed to the point of run-off on tomato seedlings. The following day the seedlings were inoculated with a spore suspension of Botrytis cinerea (the causal agent of tomato Botrytis) and incubated in saturated atmosphere at 20° C. for 48 h, and then moved to a growth chamber at 24° C. for 3 days, after which time visual disease ratings were made.
as §2

Septoria tritici = assay: Test D: preventive spray on wheat seedlings, visual disease rating (wheat leaf blotch)
Source text: as §1
as §3, with “wheat” for “tomato”, “Septoria tritici” for “Botrytis cinerea”, “wheat leaf blotch)” for “tomato Botrytis)”, “24°” for “20°”, “20°” for “24°”, “19” for “3”
as §2

[2] = test system: Blumeria graminis f. sp. tritici; assay: Test F: preventive spray on wheat seedlings, visual disease rating (wheat powdery mildew)
Source text: as §1
The test suspension was sprayed to the point of run-off on wheat seedlings. The following day the seedlings were inoculated with a spore dust of Blumeria graminis f. sp. tritici, (also known as Erysiphe graminis f. sp. tritici, the causal agent of wheat powdery mildew) and incubated in a growth chamber at 20° C. for 8 days, after which time visual disease ratings were made.
as §2

[3] = no asterisk: standard test suspension, not 40 ppm
[4] = no asterisk: standard test suspension, not 40 ppm, 100 = 100% disease control, 0 = none
[5] = asterisk: 40 ppm test suspension

SMILES | Test E2 rating (% disease control) [1, 3] [%] | Test A rating (% disease control) (Botrytis cinerea; [4]) [%] | Test D rating (% disease control) (Septoria tritici; [3]) [%] | Test F rating (% disease control) [2, 3] [%] | Test E2 rating (% disease control) [1, 5] | Test A rating (% disease control) (Botrytis cinerea; [5]) | Test D rating (% disease control) (Septoria tritici; [5]) | Test F rating (% disease control) [2, 5] | further results
Cn1nc(Br)c(C(O)c2ccc(F)cc2Br)c1-c1ccc(F)cc1Cl (stereo not shown) [compound 164] | 100 | 100 | 100 | 0 | – | – | – | – | –
Cc1nn(C)c(-c2c(F)cc(C#N)cc2F)c1C(O)c1ccc(F)cc1F (stereo not shown) [compound 112] | 100 | 80 | 100 | 97 | – | – | – | – | –
Cc1nn(C)c(-c2c(F)cccc2Cl)c1C(SC#N)c1ccc(F)cc1F (stereo not shown) [Compound 122] | – | – | – | – | 100* % | 98* % | 100* % | 99* % | –
Cc1nn(C)c(-c2c(F)cccc2Br)c1C(=O)c1ccc(F)cc1Cl [compound 93] | 91 | 90 | 7 | 100 | – | – | – | – | –
Cn1nc(Br)c(C(O)c2ccc(F)cc2Cl)c1-c1c(F)cccc1Cl (stereo not shown) [compound 148] | 100 | 100 | 100 | 99 | – | – | – | – | –
Cn1nc(Br)c(C(O)c2ccc(F)cc2Cl)c1-c1ccc(F)cc1Cl (stereo not shown) [compound 125] | 100 | 82 | 100 | 87 | – | – | – | – | –
Cc1cc(F)ccc1C(O)c1c(C)nn(C)c1-c1c(F)cccc1F (stereo not shown) [compound 129] | 99 | 100 | 100 | 100 | – | – | – | – | –
Cc1nn(C)c(-c2c(F)cncc2F)c1C(O)c1ccc(F)cc1F (stereo not shown) [compound 168] | – | – | – | – | 88* % | 21* % | 100* % | 100* % | –
Cn1nc(Br)c(C(O)c2ccc(F)cc2F)c1-c1c(F)cccc1Cl (stereo not shown) [compound 131] | 100 | 98 | 100 | 98 | – | – | – | – | –
COCOC(c1ccc(F)cc1Cl)c1c(C)nn(C)c1-c1c(F)cccc1F (stereo not shown) [Compound 110] | – | – | – | – | 98* % | 0* % | 100* % | 99* % | –
Cn1nc(Br)c(C(O)c2ccc(F)cc2F)c1-c1c(F)cccc1F (stereo not shown) [compound 124] | 100 | 99 | 100 | 100 | – | – | – | – | –
Cn1ncc(C(O)c2ccc(F)cc2Cl)c1-c1c(F)cccc1F (stereo not shown) [compound 130] | 100 | 100 | 100 | 100 | – | – | – | – | –
Cc1nn(C)c(-c2c(F)cccc2F)c1C(OCC#N)c1ccc(F)cc1Cl (stereo not shown) [Compound 107] | – | – | – | – | 99* % | 9* % | 99* % | 99* % | –
Cc1cc(F)ccc1C(O)c1c(C)nn(C)c1-n1ccnc1Cl (stereo not shown) [compound 150] | 9 | 8 | 0 | 0 | – | – | – | – | –
COc1nn(C)c(-c2c(F)cccc2F)c1C(O)c1c(F)ccc(F)c1Cl (stereo not shown) [compound 139] | – | – | – | – | 80* % | 83* % | 100* % | 96* % | –
Cc1nn(C)c(-c2c(F)cccc2Cl)c1C(SC#N)c1c(F)cc(F)cc1F (stereo not shown) [Compound 123] | – | – | – | – | 99* % | 87* % | 100* % | 90* % | –
Cc1nn(C)c(-c2c(Cl)cncc2Cl)c1C(O)c1ccc(F)cc1F (stereo not shown) [compound 167] | – | – | – | – | 0* % | 0* % | 58* % | 0* % | –
Cc1cc(C)n(-c2c(C(O)c3ccc(F)cc3C)c(C)nn2C)n1 (stereo not shown) [compound 158] | 0 | 0 | 8 | 13 | – | – | – | – | –
Cc1nn(C)c(-n2ccnc2C)c1C(O)c1ccc(F)cc1F (stereo not shown) [compound 146] | 17 | 0 | 18 | 0 | – | – | – | – | –
Cc1nn(C)c(-c2ccc(F)cc2I)c1C(O)c1ccc(F)cc1Cl (single isomer, unassigned) [compound 103] | 96 | 99 | 98 | 95 | – | – | – | – | –
Cc1nn(C)c(-c2ccc(F)cc2)c1C(O)c1ccc(F)cc1Cl (stereo not shown) [compound 105] | – | – | – | – | 98* % | 0* % | 100* % | 81* % | –
COc1nn(C)c(-c2c(F)cc(F)cc2F)c1C(O)c1ccc(F)cc1Cl (stereo not shown) [compound 152] | – | – | – | – | 100* % | 100* % | 100* % | 100* % | –
CCOc1nn(C)c(-c2c(F)cccc2F)c1C(O)c1ccc(F)cc1Cl (stereo not shown) [compound 127] | 91 | 76 | 100 | 99 | – | – | – | – | –
COc1cc(F)c(-c2c(C(O)c3c(F)cc(F)cc3F)c(C)nn2C)c(F)c1 (stereo not shown) [compound 173] | – | – | – | – | 100* % | 87* % | 100* % | 95* % | –
COc1nn(C)c(-c2c(F)cc(F)cc2F)c1C(O)c1ccccc1F (stereo not shown) [compound 154] | 100 | 100 | 100 | 100 | – | – | – | – | –
Cc1nn(C)c(-c2ccc(F)cc2I)c1C(O)c1ccc(F)cc1Cl (single isomer, unassigned) [compound 104] | – | – | – | – | 97* % | 0* % | 98* % | 72* % | –
COc1nn(C)c(-c2c(F)cccc2F)c1C(O)c1ccc(F)cc1C (stereo not drawn) [Compound 157, 5-(2,6-difluorophenyl)-α-(4-fluoro-2-methylphenyl)-3-methoxy-1-methyl-1H-pyrazole-4-methanol] | – | – | – | – | – | – | – | – | pest or weed control at 40 ppm ([1]; 192 h, asterisk: 40 ppm test suspension): 100%; pest or weed control at 40 ppm (Botrytis cinerea; Botrytis cinerea, 120 h, asterisk: 40 ppm test suspension): 100%; pest or weed control at 40 ppm (Septoria tritici; Zymoseptoria tritici, 504 h, asterisk: 40 ppm test suspension): 100%; pest or weed control at 40 ppm ([2]; Blumeria graminis, 192 h, asterisk: 40 ppm test suspension): 100%
COc1nn(C)c(-c2c(F)cc(F)cc2F)c1C(O)c1c(F)cccc1Cl (stereo not shown) [compound 155] | – | – | – | – | 100* % | 99* % | 100* % | 99* % | –
